Assay results as given in patent US11034935B2, “Liver organoid, uses thereof and culture method for obtaining them” (Koninklijke Nederlandse Akademie van Wetenschappen, priority 2010, dated 2021).
Like-named read-outs stand apart in the source and are kept apart here.

Columns and labels:
[1] = test system: human biliary-derived cultures; assay: Expansion of human biliary-derived liver cultures; type: cell-based; conditions: 500 uM added to expansion medium (ERFHNic and ENRWFHNic)
Lgr5 = conditions: Lgr5-LacZ knockin mice; for Lgr5 reporter expression in the liver: 0.8 ml/kg injection
Wnt signalling = Wnt signalling reporter (LacZ) in liver of Axin2-LacZ mice; conditions: after injection
liver organoid cultures = assay: Hepatocyte differentiation of liver organoid cultures by added compounds, RT-PCR of hepatocyte markers; conditions: titration, hepatocyte marker expression 7 days

Cc1cccc(-c2nn(C(=S)Nc3ccccc3)cc2-c2ccnc3ccccc23)n1 [A83-01, 3-(6-Methyl-2-pyridinyl)-N-phenyl-4-(4-quinolinyl)-1H-pyrazole-1-carbothioamide]
expansion of human biliary-derived cultures [1]: able to expand human biliary-derived cultures

ClC(Cl)(Cl)Cl [CC14, carbon tetrachloride]
time of peak Lgr5 reporter expression after injury (Lgr5): 6.5 days
Lgr5 reporter expression in the liver (Lgr5): induces Lgr5 expression in the liver at sites of active regeneration
Lgr5 reporter expression in the liver (Lgr5; listed as CCL4): upregulation of Lgr5
Wnt signalling in the liver (Wnt signalling; listed as CCL4): Wnt signalling is activated

C[C@H](NC(=O)Cc1cc(F)cc(F)c1)C(=O)N[C@H](C(=O)OC(C)(C)C)c1ccccc1 [DAPT]
maximal concentration efficiency (liver organoid cultures): 10 µM

B1: R-spondin1: Wnt agonist, secreted protein of the R-spondin family; Lgr5 ligand (protein, UniProt Q2MKA7 21-263, looked up)
R-spondin-1: SRGIKGKRQRRISAEGSQACAKGCELCSEVNGCLKCSPKLFILLERNDIRQVGVCLPSCPPGYFDARNPDMNKCIKCKIEHCEACFSHNFCTKCKEGLYLHKGRCYPACPEGSSAANGTMECSSPAQCEMSEWSPWGPCSKKQQLCGFRRGSEERTRRVLHAPVGDHAACSDTKETRRCTVRRVPCPEGQKRRKGGQGRRENANRNLARKESKEAGAGSRRRKGQQQQQQQGTVGPLTSAGPA
Wnt signalling in the liver (Wnt signalling): liver cells are responsive to Wnt stimulation
Wnt signalling in the liver (Wnt signalling; listed as R-spondin): upregulation of Wnt signalling expression in the liver ducts
